According to patent EP4748837A1, “AROMATIC AMIDE DERIVATIVE, AND PREPARATION METHOD THEREFOR AND USE THEREOF” (Zhejiang Hisun Pharmaceutical Co., Ltd., priority 2023, dated 2025):

How the values were obtained:
OVCAR-3 cells = test: Inhibition of OVCAR-3 cell proliferation (CellTiter-Glo cell viability); type: cell-based; conditions: Homo sapiens; OVCAR-3 cells (TP53 R248Q mutation), 72 hours culture with compound; read-out: IC50
Method: (§1) Influences of the compounds of the present invention on OVCAR-3 cell proliferation were determined by the following method. OVCAR-3 cells (containing TP53 R248Q mutation) were purchased from the Cell Bank of Shanghai Institute of Biochemistry and Cell Biology, Chinese Academy of Sciences, and cultured in an RPMI 1640 culture medium containing 10% fetal bovine serum, 100 U penicillin and 100 µg/mL streptomycin. A cell viability was determined by a CellTiter-Glo® Luminescent Cell Viability Assay kit (Promega, article number G7573).
(§2) An experimental method was operated according to steps in the instruction of the kit, which was briefly described as follows: a test compound was dissolved in DMSO first to prepare a 10 mM stock solution, then the stock solution was diluted with the culture medium to prepare a test sample, and a final concentration of the compound was in a range of 1000 nM-0.015 nM. Cells in a logarithmic growth phase were inoculated into a 96-well cell culture plate at a density of 1000 cells per well, cultured in a 5% CO2 incubator at 37°C overnight, and then the test compound was added to continuously culture for 72 hours. After the culture was ended, 50 uL of CellTiter-Glo detection solution was added to each well , shaken for 5 minutes, and then allowed to stand for 10 minutes, and subsequently, a luminance value of each well of the sample was read by a microplate reader in a Luminescence mode. By comparing with the numerical value of a control group (0.3% DMSO), a percentage inhibition rate of the compound at each concentration point was calculated, and then nonlinear regression analysis was carried out based on concentration logarithm-inhibition rate of the compound in GraphPad Prism 5 software, so as to obtain an IC50 value of the compound for inhibiting the cell proliferation, which was as shown in Table 1. Table 1 IC50 data of the compounds of the present invention for inhibiting OVCAR-3 cell proliferation

HT-29 cells = test: Inhibition of HT-29 cell proliferation (CellTiter-Glo cell viability); type: cell-based; conditions: Homo sapiens; HT-29 cells (TP53 R273H mutation), 120 hours culture with compound; read-out: IC50
Method: as §1, with “HT-29” for “OVCAR-3”, “R273H” for “R248Q”, “a McCOY's 5A” for “an RPMI 1640”
as §2, with “for 120” for “for 72”, “each well,” for “each well ,”, “Table 2.” for “Table 1.”, “Table 2” for “Table 1”, “inhibiting HT-29” for “inhibiting OVCAR-3”

| SMILES | IC50 (OVCAR-3 cells) [nM] | IC50 (HT-29 cells) [nM] |
| --- | --- | --- |
| CCS(=O)(=O)Nc1ccc(C(=O)Nc2ccc(C(N)=O)c(N3CCC(F)(F)CC3)c2)c(N2CCC3(CC2)CC3)c1 [Example 1, N-(4-carbamoyl-3-(4,4-difluor opiperidin-1-yl)phenyl)-4-(ethylsulfonamido)-2-(6-azaspiro[2.5]octan-6-yl)benzamide] | 16.5 | 10.2 |
| CCS(=O)(=O)Nc1ccc(C(=O)Nc2ccc(C(=O)NC)c(N3CCC(F)(F)CC3)c2)c(N2CCC3(CC2)CC3)c1 [Example 3, 2-(4,4-difluoropiperidin-1-yl)-4-(4-(ethylsulfonamido)-2-(6-azaspiro[2.5]octan-6-yl)benzamido)-N-methylbenzamide] | 3.7 | 4 |
| CCS(=O)(=O)Nc1ccc(C(=O)Nc2ccc(C(=O)N(C)C)c(N3CCC(F)(F)CC3)c2)c(N2CCC3(CC2)CC3)c1 [Example 4, 2-(4,4-difluoropiperidin-1-yl)-4-(4-(ethylsulfonamido)-2-(6-azaspiro[2.5]octan-6-yl)benzamido)-N,N-dimethylbenzamide] | 18.9 |  |
| CCS(=O)(=O)Nc1ccc(C(=O)Nc2ccc(C(C)=O)c(N3CCC(F)(F)CC3)c2)c(N2CCC3(CC2)CC3)c1 [Example 5, N-(4-acetyl-3-(4,4-difluoropiperidin-1-yl)phenyl)-4-(ethylsulfonamido)-2-(6-azaspiro[2.5]octan-6-yl)benzamide] | 33.1 |  |
| CCS(=O)(=O)Nc1ccc(C(=O)Nc2ccc(CO)c(N3CCC(F)(F)CC3)c2)c(N2CCC3(CC2)CC3)c1 [Example 6, N-(3-(4,4-difluoropiperidin-1-yl)-4-(hydroxymethyl)phenyl)-4-(ethylsulfonamido)-2-(6-azaspiro[2.5]octan-6-yl)benzamide] | 11.1 | 13.3 |
| CCS(=O)(=O)Nc1ccc(C(=O)Nc2ccc(-c3ncco3)c(N3CCC(F)(F)CC3)c2)c(N2CCC3(CC2)CC3)c1 [Example 7, N-(3-(4,4-difluoropiperidin-1-yl)-4-(oxazol-2-yl)phenyl)-4-(ethylsulfonamido)-2-(6-azaspiro[2.5]octan-6-yl)benzamide] | 11.1 | 18.3 |
| CCS(=O)(=O)Nc1ccc(C(=O)Nc2ccc(-c3ccncc3)c(N3CCC(F)(F)CC3)c2)c(N2CCC3(CC2)CC3)c1 [Example 8, N-(3-(4,4-difluoropiperidin-1-yl)-4-(pyridin-4-yl)phenyl)-4-(ethylsulfonamido)-2-(6-azaspiro[2.5]octan-6-yl)benzamide] | 21.2 |  |
| CCS(=O)(=O)Nc1ccc(C(=O)Nc2ccc(-c3cccnc3)c(N3CCC(F)(F)CC3)c2)c(N2CCC3(CC2)CC3)c1 [Example 9, N-(3-(4,4-difluoropiperidin-1-yl)-4-(pyridin-3-yl)phenyl)-4-(ethylsulfonamido)-2-(6-azaspiro[2.5]octan-6-yl)benzamide] | 15.2 | 14.5 |
| CCS(=O)(=O)Nc1ccc(C(=O)Nc2ccc(-c3ccccn3)c(N3CCC(F)(F)CC3)c2)c(N2CCC3(CC2)CC3)c1 [Example 10, N-(3-(4,4-difluoropiperidin-1-yl)-4-(pyridin-2-yl)phenyl)-4-(ethylsulfonamido)-2-(6-azaspiro[2.5]octan-6-yl)benzamide] | 17.3 | 27.1 |
| CCS(=O)(=O)Nc1ccc(C(=O)Nc2ccc(-c3cnccn3)c(N3CCC(F)(F)CC3)c2)c(N2CCC3(CC2)CC3)c1 [Example 11, N-(3-(4,4-difluoropiperidin-1-yl)-4-(pyrazin-2-yl)phenyl)-4-(ethylsulfonamido)-2-(6-azaspiro[2.5]octan-6-yl)benzamide] | 17.7 | 16.3 |
| CCS(=O)(=O)Nc1ccc(C(=O)Nc2ccc(-n3ccnc3)c(C3=CCC(F)(F)CC3)c2)c(N2CCC3(CC2)CC3)c1 [Example 22, N-(4',4'-difluoro-6-(1H-imidazol-1-yl)-2',3',4',5'-tetrahydro-[1,1'-biphenyl]-3-yl)-4-(ethylsulfonamido)-2-(6-azaspiro[2. 5]octan-6-yl)benzamide] | 19.9 | 16.8 |
| CCS(=O)(=O)Nc1ccc(C(=O)Nc2ccc(-c3ncco3)c(OC3CC(F)(F)C3)c2)c(N2CCC3(CC2)CC3)c1 [Example 23, N-(3-(3,3-difluorocyclobutoxy)-4-(oxazol-2-yl)phenyl)-4-(ethylsulfonamido)-2-(6-azaspiro [2.5]octan-6-yl)benzamide] | 51.3 |  |
| CCS(=O)(=O)Nc1ccc(C(=O)Nc2ccc(-n3ccnc3)c(OC3CC(F)(F)C3)c2)c(N2CCC3(CC2)CC3)c1 [Example 24, N-(3-(3,3-difluorocyclobutoxy)-4-(1H-imidazol-1-yl)phenyl) -4-(ethylsulfonamido)-2-(6-azaspiro[2.5]octan-6-yl)benzamide] | 17.6 |  |
| O=C(Nc1ccc(-n2ccnn2)c(N2CCC(F)(F)CC2)c1)c1ccc(NS(=O)(=O)C2CC2)cc1N1CCC2(CC1)CC2 [Example 32, 4-(cyclopropanesulfonamido)-N-(3-(4,4-difluoropiperidin-1-yl)-4-(1H-1,2,3-triazol-1-yl)phenyl)-2-(6-azaspiro[2.5]octan-6-yl)benzamide] | 5.9 | 4.7 |
| CCS(=O)(=O)Nc1ccc(C(=O)Nc2ccc(-c3nnn(C)n3)c(N3CCC(F)(F)CC3)c2)c(N2CCC3(CC2)CC3)c1 [Example 35, N-(3-(4,4-difluoropiperidin-1-yl)-4-(2-methyl-2H-tetrazol-5-yl)phenyl)-4-(ethylsulfonamido)-2-(6-azaspiro[2.5]octan-6-y 1)benzamide] | 11.1 | 6.2 |
| CCS(=O)(=O)Nc1ccc(C(=O)Nc2ccc(-c3ccon3)c(N3CCC(F)(F)CC3)c2)c(N2CCC3(CC2)CC3)c1 [Example 36, N-(3-(4,4-difluoropiperidin-1-yl)-4-(isoxazol-3-yl)phenyl)-4-(ethylsulfonamido)-2-(6-azaspiro[2.5]octan-6-yl)benzamide] | 11.1 | 9.3 |
| CCS(=O)(=O)Nc1ccc(C(=O)Nc2ccc(-c3ncnn3C)c(N3CCC(F)(F)CC3)c2)c(N2CCC3(CC2)CC3)c1 [Example 38, N-(3-(4,4-difluoropiperidin-1-yl)-4-(1-methyl-1H-1,2,4-triazol-5-yl)phenyl)-4-(ethylsulfon amido)-2-(6-azaspiro[2.5]octan-6-yl)benzamide] | 27.1 |  |
| CCS(=O)(=O)Nc1ccc(C(=O)Nc2ccc(-c3nnco3)c(N3CCC(F)(F)CC3)c2)c(N2CCC3(CC2)CC3)c1 [Example 40, N-(3-(4,4-difluoropiperidin-1-yl)-4-(1,3,4-oxadiazol-2-yl)phenyl)-4-(ethylsulfonamido)-2-(6-azaspiro[2.5]octan-6-yl)benz amide] | 6 | 8.2 |
| CCS(=O)(=O)Nc1ccc(C(=O)Nc2ccc(-c3ncn(C)n3)c(NC3CC(F)(F)C3)c2)c(N2CCC3(CC2)CC3)c1 [Example 54, N-(3-((3,3-difluorocyclobutyl)amino)-4-(1-methyl-1H-1,2,4-triazol-3-yl)phenyl)-4-(ethylsulfonamido)-2-(6-azaspiro[2.5]octan-6-yl)benzamide] | 38.9 |  |
| CCS(=O)(=O)Nc1ccc(C(=O)Nc2ccc(Oc3ccccn3)c(N3CCC(F)(F)CC3)c2)c(N2CCC3(CC2)CC3)c1 [Example 55, N-(3-(4,4-difluoropiperidin-1-yl)-4-(pyridin-2-yloxy)phenyl) -4-(ethylsulfonamido)-2-(6-azaspiro[2.5]octan-6-yl)benzamide] | 44.7 |  |
| [2H]C([2H])([2H])Oc1ccc(NC(=O)c2ccc(NS(=O)(=O)CC)cc2N2CCC3(CC2)CC3)cc1N1CCC(F)(F)CC1 [Example 57, N-(3-(4,4-difluoropiperidin-1-yl)-4-(methoxy-d3)phenyl)-4-(ethylsulfonamido)-2-(6-azaspiro[2.5]octan-6-yl)benzamide] | 8.7 | 4.5 |
